Values of other authors as cited in paper PMC12737022, “Evaluations of Sex Differences in Dosimetry in Rats Following Perfluorohexanesulfonamide (PFHxSA) Oral Exposure” (Toxics, 2025).

Experiments:
[1] = parameters: method as in PMID 31078680; conditions: cited from earlier work; for Liver partitioning values: male rats
[2] = parameters: method as in PMID 37756184; conditions: bariatric surgery patients; cited from earlier work
[3] = parameters: method as in PMID 40710967; conditions: SD rats following PFHxSA administration; cited from earlier work

Row | SMILES | Liver partitioning values [1] | Share of the PFAS detected following dosing [3] | other results
1 | O=C(O)C(F)(F)C(F)(F)C(F)(F)C(F)(F)C(F)(F)C(F)(F)C(F)(F)F [PFOA, perfluorooctanoic acid, reference compound] | 1.5 to 10.9 | – | Human liver/plasma partitioning Kp [2]: 0.26
2 | O=S(=O)(O)C(F)(F)C(F)(F)C(F)(F)C(F)(F)C(F)(F)C(F)(F)C(F)(F)C(F)(F)F [PFOS, perflurooctanesulfonic acid] | 1.5 to 10.9 | – | –
3 | O=C(O)C1OC(NS(=O)(=O)C(F)(F)C(F)(F)C(F)(F)C(F)(F)C(F)(F)C(F)(F)F)C(O)C(O)C1O (stereo not drawn) [PFHxSA-glucuronide] | – | less than 3% | –
4 | O=S(O)C(F)(F)C(F)(F)C(F)(F)C(F)(F)C(F)(F)C(F)(F)F [perfluorohexanesulfinic acid] | – | less than 3% | –
5 | O=C(O)C(F)(F)C(F)(F)C(F)(F)F [PFBA] | – | – | Liver partitioning summary values ([1]; across both sexes): 0.16–0.44
